Measurements from patent publication US12692234B2, “Rock inhibitors and uses thereof” (Alcon Inc., priority 2024, dated 2026).

Assays:
ROCK2 = ROCK2 (Homo sapiens, UniProt O75116); details: read-out: Ki (nM) ROCK2
ROCK1 = ROCK1 (Homo sapiens, UniProt Q13464); experiment: Kinase inhibition assay (KINASE-GLO), ROCK1; assay type: biochemical
Chain of ROCK1 (Q13464 whole entry): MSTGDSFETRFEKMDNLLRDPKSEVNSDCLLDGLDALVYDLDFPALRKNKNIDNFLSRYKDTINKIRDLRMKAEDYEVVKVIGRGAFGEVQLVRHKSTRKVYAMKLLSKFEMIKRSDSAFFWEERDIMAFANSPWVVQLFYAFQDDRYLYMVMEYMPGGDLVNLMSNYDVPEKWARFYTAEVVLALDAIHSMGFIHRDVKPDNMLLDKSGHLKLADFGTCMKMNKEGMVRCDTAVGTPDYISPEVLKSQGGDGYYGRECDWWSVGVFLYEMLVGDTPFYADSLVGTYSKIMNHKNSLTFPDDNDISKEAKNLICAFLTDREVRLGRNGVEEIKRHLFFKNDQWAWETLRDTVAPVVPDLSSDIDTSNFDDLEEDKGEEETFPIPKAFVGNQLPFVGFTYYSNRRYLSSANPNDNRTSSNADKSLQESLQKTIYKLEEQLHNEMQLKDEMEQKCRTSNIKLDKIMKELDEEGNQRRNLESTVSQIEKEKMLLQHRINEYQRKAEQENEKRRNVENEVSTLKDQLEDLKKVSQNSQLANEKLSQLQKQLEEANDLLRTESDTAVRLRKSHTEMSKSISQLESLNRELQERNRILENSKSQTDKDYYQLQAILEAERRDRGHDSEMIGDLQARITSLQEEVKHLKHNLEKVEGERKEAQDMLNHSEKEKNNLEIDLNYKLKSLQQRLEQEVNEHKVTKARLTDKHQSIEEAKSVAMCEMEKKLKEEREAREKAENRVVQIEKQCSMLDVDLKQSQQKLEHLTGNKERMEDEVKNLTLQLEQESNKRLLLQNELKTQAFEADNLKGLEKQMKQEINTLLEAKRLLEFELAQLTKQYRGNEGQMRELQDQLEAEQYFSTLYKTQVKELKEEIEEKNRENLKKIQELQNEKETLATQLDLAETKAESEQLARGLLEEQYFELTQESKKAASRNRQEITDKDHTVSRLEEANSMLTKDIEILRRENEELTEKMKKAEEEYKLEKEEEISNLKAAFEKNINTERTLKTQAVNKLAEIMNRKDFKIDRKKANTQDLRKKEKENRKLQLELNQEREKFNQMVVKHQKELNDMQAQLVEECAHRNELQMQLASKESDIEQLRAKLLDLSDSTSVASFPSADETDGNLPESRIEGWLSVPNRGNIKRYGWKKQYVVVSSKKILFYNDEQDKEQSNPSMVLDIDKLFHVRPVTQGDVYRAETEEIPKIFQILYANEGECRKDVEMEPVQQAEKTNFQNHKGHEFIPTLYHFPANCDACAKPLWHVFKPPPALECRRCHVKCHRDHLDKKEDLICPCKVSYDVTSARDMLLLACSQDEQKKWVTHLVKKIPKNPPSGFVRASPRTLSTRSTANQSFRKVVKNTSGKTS

Chain of ROCK2 (O75116 whole entry): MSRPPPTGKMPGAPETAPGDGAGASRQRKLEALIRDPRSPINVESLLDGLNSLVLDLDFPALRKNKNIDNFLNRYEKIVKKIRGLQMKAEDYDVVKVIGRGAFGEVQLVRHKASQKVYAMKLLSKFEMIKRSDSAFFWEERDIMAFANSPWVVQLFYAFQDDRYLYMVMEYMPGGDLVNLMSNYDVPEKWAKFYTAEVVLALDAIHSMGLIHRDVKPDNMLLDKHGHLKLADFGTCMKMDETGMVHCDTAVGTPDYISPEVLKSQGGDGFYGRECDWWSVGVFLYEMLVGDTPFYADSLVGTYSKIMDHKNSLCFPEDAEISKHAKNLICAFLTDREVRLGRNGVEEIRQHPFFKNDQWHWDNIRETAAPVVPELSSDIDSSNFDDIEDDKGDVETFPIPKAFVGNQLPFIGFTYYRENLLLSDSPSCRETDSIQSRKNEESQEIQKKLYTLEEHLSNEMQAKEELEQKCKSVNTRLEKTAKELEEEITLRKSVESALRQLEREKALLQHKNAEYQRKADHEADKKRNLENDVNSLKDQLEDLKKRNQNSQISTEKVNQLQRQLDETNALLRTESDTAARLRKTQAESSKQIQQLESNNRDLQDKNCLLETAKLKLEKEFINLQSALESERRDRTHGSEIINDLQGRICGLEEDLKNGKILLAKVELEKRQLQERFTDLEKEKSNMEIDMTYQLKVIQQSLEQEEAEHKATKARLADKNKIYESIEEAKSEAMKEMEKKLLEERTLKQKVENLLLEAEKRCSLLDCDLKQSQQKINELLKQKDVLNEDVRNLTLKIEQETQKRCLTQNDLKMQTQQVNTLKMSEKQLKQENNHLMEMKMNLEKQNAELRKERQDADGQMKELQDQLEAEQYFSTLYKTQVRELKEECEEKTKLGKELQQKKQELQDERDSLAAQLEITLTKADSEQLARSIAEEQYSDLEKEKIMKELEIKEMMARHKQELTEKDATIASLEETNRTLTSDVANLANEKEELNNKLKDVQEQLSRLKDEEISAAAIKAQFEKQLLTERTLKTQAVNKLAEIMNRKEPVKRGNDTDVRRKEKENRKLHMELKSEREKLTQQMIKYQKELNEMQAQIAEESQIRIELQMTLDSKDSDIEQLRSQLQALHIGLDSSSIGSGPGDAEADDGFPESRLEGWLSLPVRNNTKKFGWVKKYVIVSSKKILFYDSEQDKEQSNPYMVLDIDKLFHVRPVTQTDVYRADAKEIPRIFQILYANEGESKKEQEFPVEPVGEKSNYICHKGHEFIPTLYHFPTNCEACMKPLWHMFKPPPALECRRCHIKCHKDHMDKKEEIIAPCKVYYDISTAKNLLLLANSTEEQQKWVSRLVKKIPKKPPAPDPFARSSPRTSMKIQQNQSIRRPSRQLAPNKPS

NC[C@@H](C(=O)Nc1ccc2cnccc2c1)c1ccc(CO)cc1
Ki (ROCK2): 0.2 nM
Ki (ROCK1): 0.2 nM
